How the values were obtained:
NMDAR2A = target: T1, NMDAR2A (Homo sapiens, UniProt Q12879); assay: NMDAR agonist assay, [3H]MK-801 binding, NMDAR2A expressing HEK cell membranes; type: biochemical; settings: 50 μM glutamate; for EC50: read-out: NMDAR2A: log EC50 (converted); for Emax: read-out: NMDAR2A: % maximal [3H]MK-801 binding relative to 1 mM glycine
T1 construct: expressed in transfected cells; host or cells: HEK cells (membrane extract)
Experimental: (§1) Assays were conducted as described by Moskal et al., “GLYX-13: a monoclonal antibody-derived peptide that acts as an N-methyl-D-aspartate receptor modulator,” Neuropharmacology, 49, 1077-87, 2005. These studies were designed to determine if the test compounds act to facilitate NMDAR activation in NMDAR2A, NMDAR2B, NMDAR2C or NMDAR2D expressing HEK cell membranes as measured by increases in [^3H]MK-801 binding.
(§2) In the assay, 300 μg of NMDAR expressing HEK cell membrane extract protein was preincubated for 15 minutes at 25° C. in the presence of saturating concentrations of glutamate (50 μM) and varying concentrations of test compound (1×10^−15M−1×10^−7M), or 1 mM glycine. Following the addition of […] of [^3H]MK-801 (22.5 Ci/mmol), reactions were again incubated for 15 minutes at 25° C. (nonequilibrium conditions). Bound and free [^3H]MK-801 were separated via rapid filtration using a Brandel apparatus.
(§3) In analyzing the data, the DPM (disintegrations per minute) of [^3H]MK-801 remaining on the filter were measured for each concentration of test compound or for 1 mM glycine. The DPM values for each concentration of a ligand (N=2) were averaged. The baseline value was determined from the best fit curve of the DPM values modeled using the GraphPad program and the log(agonist) vs. response (three parameters) algorithm was then subtracted from all points in the dataset. The % maximal [3H]MK-801 binding was then calculated relative to that of 1 mM glycine: all baseline subtracted DPM values were divided by the average value for 1 mM glycine. The EC50 and % maximal activity were then obtained from the best fit curve of the % maximal [3H]MK-801 binding data modelled using the GraphPad program and the log(agonist) vs. response (three parameters) algorithm.
(§4) The tables below summarize the results for the wild type […] NMDAR2A, NMDAR2B, NMDAR2C, and NMDAR2D, and whether the compound is not an agonist (−), is an agonist (+), or is a strong agonist (++), where column A is based on the % maximal [3H]MK-801 binding relative to 1 mM glycine (−=0; <100%=+; and >100%=++); and column B is based on log EC50 values (0=−; ≥1×10^−9 M (e.g., −8)=+; and <1×10^−9 M (e.g., −10)=++).

NMDAR2B = target: T2, NMDAR2B (Homo sapiens, UniProt Q13224); assay: NMDAR agonist assay, [3H]MK-801 binding, NMDAR2B expressing HEK cell membranes; type: biochemical; settings: 50 μM glutamate; for EC50: read-out: NMDAR2B log EC50 (converted); for Emax: read-out: NMDAR2B: % maximal [3H]MK-801 binding relative to 1 mM glycine
T2 construct: expressed in transfected cells; host or cells: HEK cells (membrane extract)
T2 sequence (Q13224 27-1484, species assumed, other chains not shown): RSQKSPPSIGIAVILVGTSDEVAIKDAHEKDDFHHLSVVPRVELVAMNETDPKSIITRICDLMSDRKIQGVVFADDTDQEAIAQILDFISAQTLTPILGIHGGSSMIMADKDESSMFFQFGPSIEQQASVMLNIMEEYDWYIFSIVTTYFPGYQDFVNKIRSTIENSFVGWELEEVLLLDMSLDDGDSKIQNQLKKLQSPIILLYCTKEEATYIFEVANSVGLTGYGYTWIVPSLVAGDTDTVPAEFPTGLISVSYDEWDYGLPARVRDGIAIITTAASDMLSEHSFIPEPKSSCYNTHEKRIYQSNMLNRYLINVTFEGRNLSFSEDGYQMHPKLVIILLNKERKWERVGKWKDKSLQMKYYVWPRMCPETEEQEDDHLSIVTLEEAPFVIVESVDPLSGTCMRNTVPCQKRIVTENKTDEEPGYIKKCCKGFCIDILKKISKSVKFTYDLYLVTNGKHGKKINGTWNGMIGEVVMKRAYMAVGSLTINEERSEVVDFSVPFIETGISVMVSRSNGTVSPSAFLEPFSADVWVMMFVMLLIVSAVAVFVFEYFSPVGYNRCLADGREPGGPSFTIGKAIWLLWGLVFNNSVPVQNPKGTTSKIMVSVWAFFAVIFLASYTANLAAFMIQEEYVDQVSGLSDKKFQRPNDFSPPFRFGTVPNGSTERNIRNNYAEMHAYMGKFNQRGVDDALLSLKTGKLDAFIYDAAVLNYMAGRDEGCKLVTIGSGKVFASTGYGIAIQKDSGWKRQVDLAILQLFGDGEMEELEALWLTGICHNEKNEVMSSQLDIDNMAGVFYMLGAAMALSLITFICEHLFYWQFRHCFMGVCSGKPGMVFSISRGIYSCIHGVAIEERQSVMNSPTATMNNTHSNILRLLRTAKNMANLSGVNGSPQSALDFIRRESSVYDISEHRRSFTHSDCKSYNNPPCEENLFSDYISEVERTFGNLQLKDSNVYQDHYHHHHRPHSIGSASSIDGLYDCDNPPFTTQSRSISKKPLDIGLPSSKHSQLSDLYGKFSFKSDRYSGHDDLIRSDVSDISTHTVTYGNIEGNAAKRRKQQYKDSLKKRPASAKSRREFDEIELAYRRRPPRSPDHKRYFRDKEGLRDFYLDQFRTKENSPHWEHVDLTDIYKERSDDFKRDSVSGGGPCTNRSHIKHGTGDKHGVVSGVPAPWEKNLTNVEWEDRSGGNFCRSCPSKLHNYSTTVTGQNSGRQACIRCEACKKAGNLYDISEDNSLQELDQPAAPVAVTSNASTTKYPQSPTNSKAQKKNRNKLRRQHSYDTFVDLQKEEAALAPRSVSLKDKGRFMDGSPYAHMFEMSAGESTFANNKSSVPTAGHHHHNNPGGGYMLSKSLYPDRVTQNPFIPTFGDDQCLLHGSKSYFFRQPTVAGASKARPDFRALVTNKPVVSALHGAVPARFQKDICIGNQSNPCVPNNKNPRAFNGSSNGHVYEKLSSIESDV
Experimental: as §1, §2, §3, §4

T1 sequence (Q12879 23-1464, species assumed, other chains not shown): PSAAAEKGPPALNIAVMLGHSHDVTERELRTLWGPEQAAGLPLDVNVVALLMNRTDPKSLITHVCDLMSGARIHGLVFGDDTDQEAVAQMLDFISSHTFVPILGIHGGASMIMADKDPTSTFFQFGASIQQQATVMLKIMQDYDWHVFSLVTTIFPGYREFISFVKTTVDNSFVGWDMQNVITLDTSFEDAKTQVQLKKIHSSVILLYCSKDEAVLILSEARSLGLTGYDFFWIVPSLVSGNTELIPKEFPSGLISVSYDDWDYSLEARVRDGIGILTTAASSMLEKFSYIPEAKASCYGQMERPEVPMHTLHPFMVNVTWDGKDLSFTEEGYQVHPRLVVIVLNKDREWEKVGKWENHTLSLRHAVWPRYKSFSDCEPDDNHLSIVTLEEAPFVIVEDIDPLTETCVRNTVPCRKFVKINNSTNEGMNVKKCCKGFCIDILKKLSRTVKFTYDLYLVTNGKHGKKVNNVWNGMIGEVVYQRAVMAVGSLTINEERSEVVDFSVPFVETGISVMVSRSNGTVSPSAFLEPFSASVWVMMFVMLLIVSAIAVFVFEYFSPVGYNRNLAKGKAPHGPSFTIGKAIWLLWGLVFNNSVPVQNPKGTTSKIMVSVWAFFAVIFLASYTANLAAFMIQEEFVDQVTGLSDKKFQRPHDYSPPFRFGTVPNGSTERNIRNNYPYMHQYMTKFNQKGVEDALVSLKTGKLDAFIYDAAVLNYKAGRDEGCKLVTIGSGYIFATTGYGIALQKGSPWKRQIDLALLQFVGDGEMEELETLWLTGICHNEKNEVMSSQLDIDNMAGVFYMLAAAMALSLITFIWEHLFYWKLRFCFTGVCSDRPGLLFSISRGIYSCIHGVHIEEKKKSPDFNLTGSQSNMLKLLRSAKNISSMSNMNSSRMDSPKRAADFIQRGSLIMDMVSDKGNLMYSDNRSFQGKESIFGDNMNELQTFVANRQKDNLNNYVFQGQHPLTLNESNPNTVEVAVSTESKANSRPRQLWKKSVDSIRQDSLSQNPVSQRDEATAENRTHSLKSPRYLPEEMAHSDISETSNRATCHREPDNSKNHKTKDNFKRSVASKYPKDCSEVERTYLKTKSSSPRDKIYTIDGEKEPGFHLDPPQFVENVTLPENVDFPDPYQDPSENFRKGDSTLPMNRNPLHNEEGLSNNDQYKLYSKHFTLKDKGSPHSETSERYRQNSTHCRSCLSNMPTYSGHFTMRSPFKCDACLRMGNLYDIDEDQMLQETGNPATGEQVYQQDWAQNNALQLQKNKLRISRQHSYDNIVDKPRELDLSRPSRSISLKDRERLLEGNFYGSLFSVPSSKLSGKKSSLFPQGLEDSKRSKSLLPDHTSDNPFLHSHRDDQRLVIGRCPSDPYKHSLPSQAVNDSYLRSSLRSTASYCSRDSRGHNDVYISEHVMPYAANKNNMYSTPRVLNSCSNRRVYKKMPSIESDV

SMILES	EC50 (NMDAR2A) [nM]	NMDAR2B: % maximal [3H]MK-801 binding relative to 1 mM glycine (NMDAR2B)	EC50 (NMDAR2B) [nM]	also measured
CC1CC(=O)N(c2ccc(F)cc2)C12CN(Cc1ccccc1)C2=O (single isomer, unassigned) [BX, 2-benzyl-5-(4-fluorophenyl)-8-methyl-2,5-diazaspiro[3.4]octane-1,6-dione]	> 100	+ (<100%=+)		
CC1CC(=O)N(c2ccc(F)cc2)C12CN(Cc1ccccc1)C2=O (single isomer, unassigned) [BY, 2-benzyl-5-(4-fluorophenyl)-8-methyl-2,5-diazaspiro[3.4]octane-1,6-dione]		− (−=0)	> 100	NMDAR2A: % maximal [3H]MK-801 binding relative to 1 mM glycine (NMDAR2A): − (−=0)
C[C@@H](O)[C@@H](C(=O)NCc1ccccc1)N1CC2(CCNC(=O)C2)C1=O (single isomer, unassigned) [CA]	> 100	− (−=0)	> 100	
C[C@@H](O)[C@@H](C(=O)N(C)C)N1CC2(CCNC(=O)C2)C1=O (single isomer, unassigned) [CD]				Emax (NMDAR2A): < 100%
CC1CC(=O)N(c2ccc(F)cc2)C12CN(CC(N)=O)C2=O (single isomer, unassigned) [CE, 2-(5-(4-fluorophenyl)-8-methyl-1,6-dioxo-2,5-diazaspiro[3.4]octan-2-yl)acetamide]	> 100	− (−=0)	> 100	
CC1CC(=O)N(c2ccc(F)cc2)C12CN(CC(N)=O)C2=O (single isomer, unassigned) [CF, 2-(5-(4-fluorophenyl)-8-methyl-1,6-dioxo-2,5-diazaspiro[3.4]octan-2-yl)acetamide]		+ (<100%=+)		NMDAR2A: % maximal [3H]MK-801 binding relative to 1 mM glycine (NMDAR2A): − (−=0)
CC1C(N)C(=O)N(C)C12CN(Cc1ccccc1)C2=O (single isomer, unassigned) [CG, 7-amino-2-benzyl-5,8-dimethyl-2,5-diazaspiro[3.4]octane-1,6-dione]	> 100	+ (<100%=+)		
CC1C(N)C(=O)N(C)C12CN(Cc1ccccc1)C2=O (single isomer, unassigned) [CH, 7-amino-2-benzyl-5,8-dimethyl-2,5-diazaspiro[3.4]octane-1,6-dione]		− (−=0)	> 100	NMDAR2A: % maximal [3H]MK-801 binding relative to 1 mM glycine (NMDAR2A): − (−=0)
COc1ccc(CN2CC3(CCN(C)C(=O)C3)C2=O)cc1 (single isomer, unassigned) [CJ, 2-(4-methoxybenzyl)-7-methyl-2,7-diazaspiro[3.5]nonane-1,6-dione]				Emax (NMDAR2B): > 100%
CCN1CCC2(CC1=O)CN(Cc1ccc(OC)cc1)C2=O (single isomer, unassigned) [CK, 7-ethyl-2-(4-methoxybenzyl)-2,7-diazaspiro[3.5]nonane-1,6-dione]	> 100	− (−=0)	> 100	NMDAR2A: % maximal [3H]MK-801 binding relative to 1 mM glycine (NMDAR2A): − (−=0)
COc1ccc(CN2CC3(CCNC(=S)C3)C2=O)cc1 (single isomer, unassigned) [CM, 2-(4-methoxybenzyl)-6-thioxo-2,7-diazaspiro[3.5]nonan-1-one]	> 100		> 100	
COc1ccc(CN2CC3(CCNC(=S)C3)C2=S)cc1 (single isomer, unassigned) [CO, 2-(4-methoxybenzyl)-2,7-diazaspiro[3.5]nonane-1,6-dithione]			> 100	Emax (NMDAR2B): 0%
COc1ccc(CN2CC3(CCNC(=S)C3)C2=S)cc1 (single isomer, unassigned) [CP, 2-(4-methoxybenzyl)-2,7-diazaspiro[3.5]nonane-1,6-dithione]				Emax (NMDAR2B): < 100%
COc1ccc(CN2CC3(CCN(CC(C)C)C(=O)C3)C2=O)cc1 (single isomer, unassigned) [CS, 7-isobutyl-2-(4-methoxybenzyl)-2,7-diazaspiro[3.5]nonane-1,6-dione]				Emax (NMDAR2B): > 100%
COc1ccc(CN2CC3(CCN(CC(C)C)C(=O)C3)C2=O)cc1 (single isomer, unassigned) [CT, 7-isobutyl-2-(4-methoxybenzyl)-2,7-diazaspiro[3.5]nonane-1,6-dione]			> 100	Emax (NMDAR2B): 0%
O=C1CC2(CCN1)CN(Cc1ccccc1)C2=O (single isomer, unassigned) [CU, 2-benzyl-2,7-diazaspiro[3.5]nonane-1,6-dione]	> 100			Emax (NMDAR2A): 0%
O=C1CC2(CCN1)CN(Cc1ccccc1)C2=O (single isomer, unassigned) [CV, 2-benzyl-2,7-diazaspiro[3.5]nonane-1,6-dione]				Emax (NMDAR2A): < 100%
CN1CCC2(CC1=O)CN(Cc1ccccc1)C2=O (single isomer, unassigned) [CX, 2-benzyl-7-methyl-2,7-diazaspiro[3.5]nonane-1,6-dione]		+ (<100%=+)		NMDAR2A: % maximal [3H]MK-801 binding relative to 1 mM glycine (NMDAR2A): + (<100%=+)
CCN1CCC2(CC1=O)CN(Cc1ccccc1)C2=O (single isomer, unassigned) [CY, 2-benzyl-7-ethyl-2,7-diazaspiro[3.5]nonane-1,6-dione]			> 100	
CNC(=O)[C@H]([C@@H](C)O)N1CC2(CCNC(=O)C2)C1=O (single isomer, unassigned) [DA]	> 100	− (−=0)	> 100	
CNC(=O)[C@H]([C@@H](C)O)N1CC2(CCNC(=O)C2)C1=O (single isomer, unassigned) [DB]		++ (>100%=++)		NMDAR2A: % maximal [3H]MK-801 binding relative to 1 mM glycine (NMDAR2A): − (−=0)
NC(=O)CN1CC2(CCNC(=O)C2)C1=O (single isomer, unassigned) [DC, 2-(1,6-dioxo-2,7-diazaspiro[3.5]nonan-2-yl)acetamide]				Emax (NMDAR2A): < 100%
NC(=O)CN1CC2(CCNC(=O)C2)C1=O (single isomer, unassigned) [DD, 2-(1,6-dioxo-2,7-diazaspiro[3.5]nonan-2-yl)acetamide]	> 100			Emax (NMDAR2A): 0%
CN1CC2(CCNC(=O)C2)C1=O (single isomer, unassigned) [DG, 2-methyl-2,7-diazaspiro[3.5]nonane-1,6-dione]			> 100	Emax (NMDAR2B): 0%
CN1CC2(CCNC(=O)C2)C1=O (single isomer, unassigned) [DH, 2-methyl-2,7-diazaspiro[3.5]nonane-1,6-dione]				Emax (NMDAR2B): > 100%
CC1CC(=O)N(C)C12CN(CC(N)=O)C2=O (single isomer, unassigned) [DI, 2-(5,8-dimethyl-1,6-dioxo-2,5-diazaspiro[3.4]octan-2-yl)acetamide]				Emax (NMDAR2A): < 100%
CC1CC(=O)N(C)C12CN(CC(N)=O)C2=O (single isomer, unassigned) [DJ, 2-(5,8-dimethyl-1,6-dioxo-2,5-diazaspiro[3.4]octan-2-yl)acetamide]	> 100			Emax (NMDAR2A): 0%
CC1CC(=O)N(c2ccc(F)cc2)C12CN([C@H](C(N)=O)[C@@H](C)O)C2=O (single isomer, unassigned) [DK]			> 100	
CC1CC(=O)N(c2ccc(F)cc2)C12CN([C@H](C(N)=O)[C@@H](C)O)C2=O (single isomer, unassigned) [DL]		− (−=0)		NMDAR2A: % maximal [3H]MK-801 binding relative to 1 mM glycine (NMDAR2A): + (<100%=+)
CC1C(O)C(=O)N(C)C12CN(Cc1ccccc1)C2=O (single isomer, unassigned) [DM, 2-benzyl-7-hydroxy-5,8-dimethyl-2,5-diazaspiro[3.4]octane-1,6-dione]			> 100	

From patent US12157736B2, “Spiro-lactam NMDA modulators and methods of using same” (Tenacia Biotechnology (Hong Kong) Co., Limited, priority 2016, dated 2024)
